Like-named read-outs stand apart in the source and are kept apart here. No end group written: not given here.

The values below come from PMC3446968 (PLoS ONE, 2012).

The target in assay [1] is T1, human Sirt5 (Homo sapiens, UniProt Q9NXA8).
T1 construct: (residues 34- 302); 6x His tag with TEV protease cleavage site (N); made in house; host or cells: E. coli BL21DE3 Rosetta 2
T1 sequence (Q9NXA8 34-302): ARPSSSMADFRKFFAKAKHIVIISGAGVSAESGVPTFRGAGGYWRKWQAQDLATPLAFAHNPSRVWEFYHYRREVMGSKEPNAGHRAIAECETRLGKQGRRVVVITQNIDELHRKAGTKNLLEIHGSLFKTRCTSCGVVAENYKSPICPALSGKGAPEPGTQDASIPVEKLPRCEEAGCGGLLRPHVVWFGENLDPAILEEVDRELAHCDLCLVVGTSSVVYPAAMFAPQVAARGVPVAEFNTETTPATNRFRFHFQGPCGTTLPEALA
As to the kind of experiment: Binding analysis by microscale thermophoresis, Sirt5. On the procedure: For labeling, 100 µM Sirtuin were incubated with 200 µM fluorescein isothiocyanate (Thermo Fisher) in 20 mM HEPES pH 7.5, 150 mM NaCl over night at 4°C in the dark. Non-bound dye was removed using a Nap25 column (GE Healthcare). Dissociation constants were determined from microscale thermophoresis using a Monolith NT.115 (NanoTemper Technologies, Munich, Germany). […] Dissociation constants were determined by non-linear fitting in GraFit.
For orientation: Microscale thermophoresis detects binding through changes in fluorescence in a small temperature gradient.

The next assay addresses T2, human Sirt3 (Homo sapiens, UniProt Q9NTG7).
T2 construct: human Sirt3 (residues 114-380); 6x His tag with TEV protease cleavage site (N); made in house; host or cells: E. coli BL21DE3 Rosetta 2
T2 sequence (Q9NTG7 114-380): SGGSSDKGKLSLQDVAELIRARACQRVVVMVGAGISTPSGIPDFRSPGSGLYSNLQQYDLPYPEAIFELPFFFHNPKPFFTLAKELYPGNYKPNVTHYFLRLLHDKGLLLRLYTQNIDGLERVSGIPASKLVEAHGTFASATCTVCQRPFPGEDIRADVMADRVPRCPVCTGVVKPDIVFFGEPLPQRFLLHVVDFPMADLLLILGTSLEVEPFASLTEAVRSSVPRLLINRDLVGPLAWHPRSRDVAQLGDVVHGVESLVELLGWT
As to the kind of experiment: Binding analysis by microscale thermophoresis, Sirt3. The protocol:
Non-bound dye was removed using a Nap25 column (GE Healthcare). Dissociation constants were determined from microscale thermophoresis using a Monolith NT.115 (NanoTemper Technologies, Munich, Germany). […] Dissociation constants were determined by non-linear fitting in GraFit.

The subject of the next assay is Sirt3. Conditions: read-out: KM apparent affinity for cosubstrate; cited from earlier work.
The target of the next assay is T3, Sirt5Zf (Danio rerio, UniProt Q6DHI5).
T3 construct: zebrafish Sirt5 (residues 30- 298); 6x His tag with TEV protease cleavage site (N); made in house; host or cells: E. coli BL21DE3 Rosetta 2
T3 sequence (Q6DHI5 30-298): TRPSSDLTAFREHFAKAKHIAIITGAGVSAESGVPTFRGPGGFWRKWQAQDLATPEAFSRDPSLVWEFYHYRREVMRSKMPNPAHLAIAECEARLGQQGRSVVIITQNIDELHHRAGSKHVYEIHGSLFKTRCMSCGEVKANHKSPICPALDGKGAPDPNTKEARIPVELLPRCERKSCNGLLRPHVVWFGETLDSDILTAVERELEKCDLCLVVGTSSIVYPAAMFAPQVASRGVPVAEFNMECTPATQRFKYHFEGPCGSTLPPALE
Briefly: MS-based peptide deacylation assay, zebrafish Sirt5. Format: biochemical. Conditions: deacetylation, CPS1 peptide (Fig. S3).

A further assay addresses Sir2Af2-Met70Arg (Archaeoglobus fulgidus, UniProt O30124, M70R). Briefly: MS-based peptide deacylation assay, Sir2Af2-Met70Arg variant. Conditions: for IC50: IC50 nicotinamide inhibition.
The target of a further assay is T4, Sir2Af2 (Archaeoglobus fulgidus, UniProt O30124).
T4 construct: host or cells: E. coli BL21DE3 Rosetta2
T4 sequence (O30124 1-253): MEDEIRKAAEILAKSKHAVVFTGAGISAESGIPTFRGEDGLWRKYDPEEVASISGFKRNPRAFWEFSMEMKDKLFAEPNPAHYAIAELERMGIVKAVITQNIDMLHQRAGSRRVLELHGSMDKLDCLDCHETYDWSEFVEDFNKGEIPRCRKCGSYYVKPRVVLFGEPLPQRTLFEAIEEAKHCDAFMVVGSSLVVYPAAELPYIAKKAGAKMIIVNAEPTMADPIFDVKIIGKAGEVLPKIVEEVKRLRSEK
Briefly: MS-based peptide deacylation assay, Sir2Af2 wt. The note with it: for IC50: IC50 nicotinamide inhibition; for normalized desuccinylation [%]: succinylated Prx1-Lys197. It counts as biochemical.

Assay [2] concerns the target T5, human Sirt5 (human, UniProt Q9NXA8 37-310, labelled with fluorescein isothiocyanate (sites not given)).
T5 construct: Sirt5, human; a 'gene fragment' cloned into pET151/D-Topo
T5 sequence (looked up): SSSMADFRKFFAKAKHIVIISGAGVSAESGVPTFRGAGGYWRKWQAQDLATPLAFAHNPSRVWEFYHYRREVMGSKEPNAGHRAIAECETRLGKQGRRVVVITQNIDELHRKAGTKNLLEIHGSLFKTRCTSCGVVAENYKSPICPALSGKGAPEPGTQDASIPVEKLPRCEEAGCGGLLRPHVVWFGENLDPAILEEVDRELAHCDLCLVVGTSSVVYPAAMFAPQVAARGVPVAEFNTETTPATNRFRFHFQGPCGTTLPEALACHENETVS
Briefly: MST; ligand (peptide) titrated to 100 nM fluorescein-labelled Sirtuin; mixtures preincubated 30 min at room temperature; Monolith NT.115; non-linear fitting in GraFit. Conditions: both partners purified.

The mark [3] stands for this setting: 25 µM substrate peptide, read-out: Kd for NAD^+ under peptide saturation.
[4] abbreviates: in presence of 0.5 mM nicotinamide, read-out: Kd(NAD^+).
[5] abbreviates: no nicotinamide, no peptide, read-out: Kd(NAD^+).
The mark [6] stands for this setting: read-out: normalized deacetylation [%].

Sir2Af2-Met70Arg, sequence (O30124 whole entry M70R): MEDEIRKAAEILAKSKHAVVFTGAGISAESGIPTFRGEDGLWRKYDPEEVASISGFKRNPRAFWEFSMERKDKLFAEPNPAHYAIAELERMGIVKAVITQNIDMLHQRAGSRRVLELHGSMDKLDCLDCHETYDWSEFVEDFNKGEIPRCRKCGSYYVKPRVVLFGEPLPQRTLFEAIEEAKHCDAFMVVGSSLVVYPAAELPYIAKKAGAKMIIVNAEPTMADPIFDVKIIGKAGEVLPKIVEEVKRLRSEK
Procedure for Sir2Af2-Met70Arg: (§1) Samples were diluted with 0.1% formic acid and filtered using 10 kDa cutoff concentrators. Samples were analyzed on an LC-ESI-MS system consisting of a Prominence HPLC (Shimadzu, Duisburg, Germany) with Sil20AC autosampler connected to an LTQ XL mass spectrometer (Thermo Fisher, Bremen, Germany). […] Extracted ion chromatograms (XICs) with mass windows of ±2 m/z were generated for the acylated and deacylated peptide, and peak areas were determined using automatic peak area detection of the Xcalibur Qual Browser module and further analyzed with Excel (Microsoft, Seattle, USA) or GraFit (Erithacus Software, West Sussex, UK).
Procedure for Sirt5Zf: as §1

For the molecule `NC(=O)c1ccc[n+]([C@@H]2O[C@H](COP(=O)([O-])OP(=O)(O)OC[C@H]3O[C@@H](n4cnc5c(N)ncnc54)[C@H](O)[C@@H]3O)[C@@H](O)[C@H]2O)c1` [NAD^+], the Kd at human Sirt5 [1] (setting [3]) turned out to be 200 ± 70 µM; on human Sirt5 [1] (setting [4]), 920 ± 230 µM; at human Sirt5 [1] (setting [5]) it was 980 ± 280 µM; at human Sirt3 (setting [3]) it was 260 ± 150 µM; at human Sirt3 (setting [4]), 830 ± 240 µM; on human Sirt3 (setting [5]), 710 ± 230 µM. For the same molecule, the Michaelis constant (Km) – broadly, the concentration of substrate that gives half-maximal velocity – in the assay with Sirt3 is 100 to 600 µM.

Take `NC(=O)c1cccnc1` [nicotinamide]: the concentration for half-maximal inhibition (IC50) – broadly, the concentration at which inhibition is half-maximal – on Sirt5Zf is 6900 ± 500 µM; against Sir2Af2-Met70Arg (deacetylase activity, acetylated Prx1-Lys197) it was greater than 10000 µM; on Sir2Af2-Met70Arg (desuccinylase activity, succinylated Prx1-Lys197), 2800 ± 900 µM; on Sir2Af2 (acetyl-CPS1 substrate) it was 5800 ± 1600 µM; at Sir2Af2 (acetyl-Prx1 substrate) it was 1300 ± 300 µM; against Sir2Af2 (deacetylation, p53 peptide (Fig. S3)), 2100 ± 150 µM. The concentration for half-maximal inhibition (IC50) against Sir2Af2 (succinyl-CPS1 substrate) was 6600 ± 500 µM; against Sir2Af2 (succinyl-Prx1 substrate), greater than 10000 µM. In addition, the remaining activity at 1 µM on Sir2Af2-Met70Arg (setting [6]) stood at 100%; at Sir2Af2 (NAM 1 µM, acetylated Prx1-Lys197, wt, read-out: normalized deacetylation [%]), 88.7%. Also, the remaining activity at 10 µM at Sir2Af2-Met70Arg (setting [6]) stood at 98.1%; on Sir2Af2 (NAM 10 µM, acetylated Prx1-Lys197, wt, read-out: normalized deacetylation [%]), 101%. For the same molecule, the remaining activity at 100 µM at Sir2Af2-Met70Arg (setting [6]) turned out to be 96.1%; on Sir2Af2 (NAM 100 µM, acetylated Prx1-Lys197, wt, read-out: normalized deacetylation [%]), 93%. For the same molecule, the remaining activity at 500 µM on Sir2Af2-Met70Arg (setting [6]) turned out to be 69.7%; on Sir2Af2 (NAM 500 µM, acetylated Prx1-Lys197, wt, read-out: normalized deacetylation [%]), 65.4%. For the same molecule, the remaining activity at 1000 µM on Sir2Af2-Met70Arg (setting [6]) was determined as 86.4%; at Sir2Af2 (NAM 1000 µM, acetylated Prx1-Lys197, wt, read-out: normalized deacetylation [%]), 49.8%. Besides, the remaining activity at 5000 µM on Sir2Af2-Met70Arg (setting [6]) worked out at 71.4%; on Sir2Af2 (NAM 5000 µM, acetylated Prx1-Lys197, wt, read-out: normalized deacetylation [%]) it was 30.4%. In addition, the remaining activity at 10000 µM on Sir2Af2-Met70Arg (setting [6]) turned out to be 52.6%. Also, the “normalized desuccinylation [%]” value at Sir2Af2 (NAM 1 µM, wt) turned out to be 100.0%; at Sir2Af2 (NAM 10 µM, wt) it was 96.1%; on Sir2Af2 (NAM 100 µM, wt), 95.7%; at Sir2Af2 (NAM 1000 µM, wt), 88.3%; at Sir2Af2 (NAM 5000 µM, wt) it was 78.1%; at Sir2Af2 (NAM 10000 µM, wt), 69.1%.

B1: ACS2-Lys642 peptide (TRSG(acK)VMR) (peptide)
peptide: TRSGK(Ac)VMR
notes: acetyl-CoA synthetase 2 (ACS2), stretch around the acetylation site Lys642; also called ACS2 peptide; source: synthetic peptide, bought: GL Biochem (Shanghai)
For B1, the Kd in the assay with human Sirt5 [2] was 2.1 ± 0.7 µM.

B2: CPS1-Lys527 peptide (FKRGVL(acK)EYGVKV) (peptide)
peptide: FKRGVLK(Ac)EYGVKV
notes: carbamoyl phosphate synthetase 1 (CPS1), stretch around the acetylation site Lys527; also called CPS1 peptide; source: synthetic peptide, bought: GL Biochem (Shanghai)
As to B2, the Kd with human Sirt5 [2] stood at 2.3 ± 1.5 µM.
